10 compounds from PubChem BioAssay AID651630 (Sanford-Burnham Center for Chemical Genomics, 2012) can be followed below.

The source made the active and inactive calls.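 Rule for the calls: active = lipid-stain IC50 at or below a set limit, with nuclear-stain toxicity IC50 at least five times higher; inactive = the rest.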

One experiment deals with TAG. In words: TAG lipid buildup inhibition with viability readout – cell-based, panel, Nile Red and DAPI fluorescence, H9c2, dose response (AID 651630).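 Note: cells exposed to compound overnight before fixation and staining.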 The note with it: H9c2 cells, Nile Red TAG fluorescence, oleic acid.
The subject of the next experiment is DAPI. The experiment is described as above. The note with it: H9c2 cells, DAPI nuclear fluorescence (cytotoxicity counter-readout), oleic acid.

For the compound `COCCCn1c(N)c(C(=O)Nc2ccccc2)c2nc3ccccc3nc21`, the IC50 in the experiment with TAG (mean of runs) is 13.5 µM; in the experiment on TAG (run 1) it was 11.8 µM; in the experiment with TAG (run 2), 15.2 µM. Further, the IC50 cytotoxicity (DAPI nuclear signal decrease) in the experiment on DAPI (mean of runs) is > 25 µM (inactive); in the experiment with DAPI (run 1) it was above 25 µM; in the experiment with DAPI (run 2) it was above 25 µM.

Regarding `CC(C)(C)OC(=O)[C@H](Cc1ccccc1)NC(=O)c1ncn2c1c(=O)[nH]c1ccc(Br)cc12`, the IC50 is 11.8 µM with TAG (mean of runs), 12 µM with TAG (run 1) and 11.6 µM in the experiment on TAG (run 2). The IC50 cytotoxicity (DAPI nuclear signal decrease) is > 25 µM (inactive) with DAPI (mean of runs), above 25 µM with DAPI (run 1) and above 25 µM with DAPI (run 2).

For the compound `COc1ccc(S(=O)(=O)N(C)C[C@@H]2OCCCC[C@H](C)Oc3ccc(NC(=O)Nc4ccc(C(F)(F)F)cc4)cc3C(=O)N([C@H](C)CO)C[C@H]2C)cc1`, the IC50 with TAG (mean of runs) was > 25 µM (inactive); in the experiment on TAG (run 1) it was above 25 µM; in the experiment with TAG (run 2), above 25 µM. Besides, the IC50 cytotoxicity (DAPI nuclear signal decrease) with DAPI (mean of runs) was > 25 µM (inactive); in the experiment on DAPI (run 1), above 25 µM; with DAPI (run 2), above 25 µM.

On to `N=c1n(CCO)c2ccccc2n1CCOc1ccc(Cl)cc1Cl`, for which the values for the IC50 in the experiment on TAG (mean of runs), with TAG (run 1) and in the experiment on TAG (run 2) were > 25 µM (inactive), above 25 µM and above 25 µM, respectively. Besides, the IC50 cytotoxicity (DAPI nuclear signal decrease) with DAPI (mean of runs) was 22.3 µM (inactive); in the experiment on DAPI (run 1) it was 21.4 µM; in the experiment on DAPI (run 2), 23.1 µM.

For `O=C(N/N=C/c1ccc2c(c1)OCO2)c1cc(-c2ccncc2)nc2ccccc12`, the IC50 in the experiment with TAG (mean of runs) is 14.7 µM; with TAG (run 1) it was 16.8 µM; in the experiment on TAG (run 2) it was 12.6 µM. Further, the IC50 cytotoxicity (DAPI nuclear signal decrease) in the experiment on DAPI (mean of runs) is > 25 µM (inactive); in the experiment on DAPI (run 1), above 25 µM; in the experiment on DAPI (run 2), above 25 µM.

`Oc1ccc(C[C@H]2CNC(=S)N2CC2CCCN2C[C@H](Cc2ccc(O)cc2)N2C[C@H](Cc3ccc(O)cc3)N(CC3CCCCC3)C2=S)cc1` (some centres not stated): the results for the half-maximal inhibitory concentration (IC50) in the experiment with TAG (mean of runs), in the experiment on TAG (run 1) and with TAG (run 2) were 9.34 µM, 8.74 µM and 9.95 µM, respectively. The IC50 cytotoxicity (DAPI nuclear signal decrease) in the experiment with DAPI (mean of runs) was > 25 µM (inactive); in the experiment with DAPI (run 1) it was above 25 µM; with DAPI (run 2), above 25 µM.

Regarding `Cc1cc(N2CCN(Cc3cn(C)nc3-c3ccccc3F)CC2)cc(C)n1`, the IC50 with TAG (mean of runs) was 13.1 µM; in the experiment with TAG (run 1), 11.1 µM; with TAG (run 2) it was 15.1 µM. Besides, the results for the IC50 cytotoxicity (DAPI nuclear signal decrease) with DAPI (mean of runs), in the experiment on DAPI (run 1) and in the experiment on DAPI (run 2) were > 25 µM (inactive), above 25 µM and above 25 µM, respectively.

For `Nc1c(C(=O)Nc2ccccc2)c2nc3ccccc3nc2n1CCCN1CCOCC1`, the values for the IC50 in the experiment with TAG (mean of runs), in the experiment with TAG (run 1) and in the experiment with TAG (run 2) were 4.64 µM, 4.97 µM and 4.31 µM, respectively. Further, the IC50 cytotoxicity (DAPI nuclear signal decrease) in the experiment on DAPI (run 1) and in the experiment with DAPI (run 2) was above 25 µM each time.

Turning to `COc1cccc(N=Nc2c(O)[nH]c(=S)[nH]c2=O)c1`, the IC50 with TAG (mean of runs) was > 25 µM (inactive); in the experiment with TAG (run 1), above 25 µM; with TAG (run 2) it was above 25 µM. The IC50 cytotoxicity (DAPI nuclear signal decrease) in the experiment with DAPI (run 1) was 6.31 µM; in the experiment with DAPI (run 2) it was above 25 µM.

As for `COc1ccc2[nH]c3c(c2c1)CCN1C(=O)C(CC(=O)NCC24CC5CC(CC(C5)C2)C4)C[C@H](C(=O)N(C(C)C)C(C)C)[C@@]31C` (some centres not stated), the IC50 with TAG (run 1) was 20.8 µM; with TAG (run 2), above 25 µM. Also, the IC50 cytotoxicity (DAPI nuclear signal decrease) with DAPI (mean of runs) is > 25 µM (inactive); in the experiment on DAPI (run 1) it was above 25 µM; with DAPI (run 2) it was above 25 µM.

As usually defined, the IC50 is the point on the concentration scale where inhibition reaches its midpoint.
